± gives the standard deviation of the reports.
Row | Structure (SMILES) | glass transition temperature
1 | *Oc1ccc(S(=O)(=O)c2ccc(Oc3ccc(C4(c5ccc(*)cc5)CC5CCC4C5)cc3)cc2)cc1 (repeat unit) | 250.00 °C
2 | *Oc1ccc(S(=O)(=O)c2ccc(Oc3ccc4c(=O)n5c6cc(Oc7ccc8c(c7)nc7c9ccc(*)c%10cccc(c(=O)n87)c%109)ccc6nc5c5cccc3c45)cc2)cc1 (repeat unit) | 374.00 °C
3 | *c1ccc(C(c2ccccc2)(c2ccc(-c3nc4ccc(-c5ccc6nc(*)oc6c5)cc4o3)cc2)C(F)(F)F)cc1 (repeat unit) | 350.00 °C
4 | *CC(*)n1ccnc1 (repeat unit) | 175.00 °C
5 | *Oc1ccc2cc(OC(=O)c3ccc(Oc4ccc(C(*)=O)cc4)cc3)ccc2c1 (repeat unit) | 145.00 °C
6 | *Oc1ccc(CC(*)=O)cc1 (repeat unit) | 117.00 °C
7 | *c1cccc(C(c2cccc(N3C(=O)c4ccc(Oc5ccc6c(c5)C(=O)N(*)C6=O)cc4C3=O)c2)(C(F)(F)F)C(F)(F)F)c1 (repeat unit) | 224.50 °C
8 | *OP(=O)(Oc1ccc([N+](=O)[O-])cc1)Oc1c(C)cc(S(=O)(=O)c2cc(C)c(*)c(C)c2)cc1C (repeat unit) | 173.00 °C
9 | *CCCCCCCCCCOc1ccc(/C=C/c2ccc(OCCCCCCCCCCOP(=O)(O*)OCCCCCCCCCCOc3ccc(/N=N/c4ccc(-c5ccccc5)cc4)cc3)cc2)cc1 (repeat unit) | 50.00 °C
10 | *CC(*)c1cc(C(=O)Oc2ccc(OC)cc2)ccc1C(=O)Oc1ccc(OC)cc1 (repeat unit) | 115.00 °C
11 | *OC(=O)Nc1ccc(C)c(NC(=O)OC2CCN(c3ccc(/C=C/C4=CC(=C(C#N)C#N)C=C(/C=C/c5ccc(N6CCC(*)CC6)s5)O4)s3)CC2)c1 (repeat unit) | 212.00 °C
12 | *Oc1ccc(OC(=O)c2ccc(C(*)=O)cc2Sc2ccccc2)cc1-c1ccccc1 (repeat unit) | 130.00 °C
13 | *CC(*)C(=O)OCCCCSC (repeat unit) | -70.00 °C
14 | *CC(*)(C)C(=O)OCc1cc(Cl)cc(Cl)c1 (repeat unit) | 30.0 °C
15 | *Oc1ccc(Oc2ccc(OC(=O)c3cc(OCCCCC)cc(C(*)=O)c3)cc2)cc1 (repeat unit) | 126.00 °C
16 | *CC(*)OC(=O)/C=C/c1ccccc1 (repeat unit) | 127.00 °C
17 | *c1ccc(OC(=O)c2ccc(C(=O)Oc3ccc(-c4nc5ccccc5nc4*)cc3)cc2)cc1 (repeat unit) | 232.00 °C
18 | *c1cc(Br)c(-c2c(Br)cc(N3C(=O)c4ccc(-c5ccc6c(c5)C(=O)N(*)C6=O)cc4C3=O)cc2C(=O)OCCCCCCCC)c(C(=O)OCCCCCCCC)c1 (repeat unit) | 135.50 °C
19 | *CC(*)(C)C(N)=O (repeat unit) | 88.70 °C

More lines, now with the values ahead:

Row | glass transition temperature | Structure (SMILES)
20 | 130.00 °C | *CCCC(C)CN1C(=O)c2ccc(C(=O)Oc3ccc4cc(OC(=O)c5ccc6c(c5)C(=O)N(*)C6=O)ccc4c3)cc2C1=O (repeat unit)
21 | 400.00 °C | *c1ccc(Oc2ccc(-n3c(=O)c4cc5c(=O)n(-c6ccc(Oc7ccc(-c8nc9cc%10sc(*)nc%10cc9s8)cc7)cc6)c(=O)c5cc4c3=O)cc2)cc1 (repeat unit)
22 | 336.00 °C | *c1ccc(Cc2ccc(N3C(=O)c4ccc(S(=O)(=O)c5ccc6c(c5)C(=O)N(*)C6=O)cc4C3=O)c(C(C)(C)C)c2)cc1C(C)(C)C (repeat unit)
23 | 287.00 °C | *Nc1ccc(C(C)(C)c2ccc(NC(=O)c3cc(C(*)=O)cc(S(=O)(=O)c4ccccc4)c3)cc2)cc1 (repeat unit)
24 | 240.00 °C | *C1CCC(CC2CCC(N3C(=O)c4ccc(Oc5ccc6c(c5)C(=O)N(*)C6=O)cc4C3=O)CC2)CC1 (repeat unit)
25 | 71.00 ± 10 °C | *c1ccc2c(c1)C(CCCCCCCC)(CCCCCCCC)c1cc(*)ccc1-2 (repeat unit) [poly(9,9-dioctylfluorene)]
26 | 72.00 °C | *c1ccc(C(=O)OCCCCCCCCCOC(=O)c2ccc(-c3nnc(*)s3)cc2)cc1 (repeat unit)
27 | 45.00 °C | *CC(*)(C)C(=O)OCc1ccc2c(c1)c1ccccc1n2CCCCCCCC (repeat unit)
28 | 111.00 °C | *Oc1ccc(Oc2ccc(/C=N/CCCCCC/N=C/c3ccc(*)cc3)cc2)cc1 (repeat unit)
29 | 112.00 °C | */C=C/c1sc(-c2ccc(-c3ccc(-c4sc(/C=C/C5=CC(=C(C#N)C#N)C=C(*)O5)c(CCCCCC)c4CCCCCC)s3)s2)c(CCCCCC)c1CCCCCC (repeat unit)
30 | 78.70 °C | *CCCCCCCCOc1c(OC)cc(/C=C/c2ccc(/C=C/c3ccc(/C=C/c4cc(OC)c(O*)c(OC)c4)cc3)cc2)cc1OC (repeat unit)
31 | 315.00 °C | *C(=O)Nc1ccc(-c2ccc(NC(=O)c3ccc4c(c3)C(=O)N(c3ccc(Oc5ccc(N6C(=O)c7ccc(*)cc7C6=O)cc5)cc3)C4=O)cc2)cc1 (repeat unit)
32 | 230.80 °C | *Oc1ccc(S(=O)(=O)c2ccc(Oc3c(C)cc(C(c4cc(C)c(*)c(C)c4)(C(F)(F)F)C(F)(F)F)cc3C)c(Br)c2)cc1Br (repeat unit)
33 | 320.00 °C | *C(=O)c1ccc2nc(-c3ccccc3)c(-c3ccc(-c4nc5ccc(*)cc5nc4-c4ccccc4)cc3)nc2c1 (repeat unit)
34 | 185.00 °C | *CC(*)(C)C(=O)OC1CCCCC1C(C)(C)C (repeat unit)
35 | 83.00 °C | *CCCCCCOC(=O)c1cc(/N=N/c2ccc(OCC)cc2)ccc1-c1ccc(/N=N/c2ccc(OCC)cc2)cc1C(=O)O* (repeat unit)
36 | 41.00 °C | *CC(*)(C)C(=O)OCCCCCCOc1ccc(C(=O)Oc2ccc(/N=N/c3ccc(C#N)cc3)c3ccccc23)cc1 (repeat unit)
37 | 124.00 °C | *Oc1ccc(C(C)(CC)c2ccc(OC(=O)OC3C(C)(C)C(OC(*)=O)C3(C)C)cc2)cc1 (repeat unit)
38 | 248.50 °C | *Oc1ccc(-c2ccc(NC(=O)c3cc(C(=O)Nc4ccc(-c5ccc(Oc6ccc(C(C)(C)c7ccc(*)cc7)cc6)c(C(F)(F)F)c5)cc4)cc(C(C)(C)C)c3)cc2)cc1C(F)(F)F (repeat unit)
39 | 106.20 °C | *CC(*)(C)C(=O)OCCCCCCCCOc1ccc(/N=N/c2ccc(C3OCC4(CO3)CC3C=CC4C3)cc2)cc1 (repeat unit)
40 | 227.00 °C | *Nc1cc(NC(=O)Nc2ccc(CCc3ccccc3NC(*)=O)cc2)ccc1C (repeat unit)
41 | 204.00 °C | *c1ccc(Oc2ccc(-c3ccc(Oc4ccc(N5C(=O)c6ccc(Oc7ccccc7Oc7ccc8c(c7)C(=O)N(*)C8=O)cc6C5=O)cc4)cc3)cc2)cc1 (repeat unit)
42 | 31.90 °C | *CCN(CCOC(=O)Nc1ccc(C)c(NC(=O)O*)c1)c1ccccc1 (repeat unit)
43 | -55.00 °C | *CC(*)C(=O)OCC(F)(F)C(F)(F)OC(F)(F)F (repeat unit)
44 | 221.00 °C | *CC(=O)Nc1ccc(Oc2cccc(Oc3ccc(NC(=O)CN4C(=O)c5ccc(C(c6ccc7c(c6)C(=O)N(*)C7=O)(C(F)(F)F)C(F)(F)F)cc5C4=O)cc3)c2)cc1 (repeat unit)

From the PolyMetriX glass transition set
